In EP4772509A1, “KINESIN KIF18A INHIBITOR, AND APPLICATION THEREOF” (Shanghai Apeiron Therapeutics Company Limited, priority 2023, dated 2025):
Read-outs that look alike come from different tables or passages of the source.

What was measured:
OVCAR3 cells = experiment: Cell proliferation activity test (CyQUANT Direct); assay type: cell-based; conditions: 3 days, 0.2% DMSO, CyQUANT fluorescence
In short: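 OVCAR3 cells in RPMI-1640 with 10% FBS were seeded, then treated overnight later with compound at final 0–10 µM (0.2% DMSO) for 3 days at 37°C, 5% CO2. Proliferation was read as CyQUANT Direct fluorescence after 60 min at 37°C.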

[1] = biological target: T1, Human KIF18A (amino acid sequence 1-417) (Homo sapiens, UniProt Q8NI77); experiment: Enzymatic activity test (ADP-Glo, microtubule-stimulated ATPase); assay type: biochemical; conditions: 60 µg/mL microtubules, 25 µM ATP, 2.5 nM KIF18A protein, 120 min at ambient temperature, chemiluminescence; read-out: KIF18A IC50
T1 construct: purchased Viva Biotech (Shanghai) Ltd
T1 sequence (Q8NI77 1-417): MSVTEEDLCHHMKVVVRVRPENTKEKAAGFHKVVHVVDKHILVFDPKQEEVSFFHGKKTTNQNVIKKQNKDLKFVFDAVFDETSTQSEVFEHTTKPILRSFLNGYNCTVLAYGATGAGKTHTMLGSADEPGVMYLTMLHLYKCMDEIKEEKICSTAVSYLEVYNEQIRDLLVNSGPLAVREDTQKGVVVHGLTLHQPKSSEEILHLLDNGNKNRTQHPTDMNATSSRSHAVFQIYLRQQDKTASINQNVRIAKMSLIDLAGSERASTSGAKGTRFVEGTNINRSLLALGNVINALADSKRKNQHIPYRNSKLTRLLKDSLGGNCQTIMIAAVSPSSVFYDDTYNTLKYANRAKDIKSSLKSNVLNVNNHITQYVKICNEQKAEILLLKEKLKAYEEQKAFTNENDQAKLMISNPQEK
In short: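 KIF18A (1-417) at 2.5 nM with 60 µg/mL microtubules and 25 µM ATP, compounds at 0-10 µM final, reacted 120 min at ambient temperature. ADP formed was read by ADP-Glo chemiluminescence after two 30 min room-temperature steps.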

HT29 cells = experiment: CyQuant cell proliferation activity test; assay type: cell-based; conditions: HT29 at 2000 cells per well, 3 days, 0.2% DMSO, XLFIT
In short: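 Cells seeded at 2000/well in RPMI-1640 with 10% FBS, left overnight, then exposed 3 days at 37 °C, 5% CO2 to a 9-point 3-fold series from 3000 nM (0.2% DMSO). CyQuant signal read after 1 h; IC50 from curve fit.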

IC50 (OVCAR3 cells; Homo sapiens, OVCAR-3, 72 h) [nM]	IC50 [1] [nM]	IC50 (HT29 cells; Homo sapiens, HT-29, 72 h) [nM]	IC50 (OVCAR3 cells) [nM]	IC50 (HT29 cells; read-out: HT-29 IC50) [nM]	Compound
188	41	378			COc1cc2nc(n1)N1CCC(F)(F)C(CCCc3ccc(cc3)-c3cc(NS(=O)(=O)CCO)ncc3C(=O)N2)C1 (single isomer, unassigned) [Example 56A, N-(1^4,1^4-difluoro-2^6-methoxy-4-oxo-3-aza-2(2,4)-pyrimidin-5(3,4)-pyridin-1(1,3)-piperidin-6(1,4)-benzoazacyclononane-5^6-yl)-2-hydroxyethane-1-sulfonamide]
> 3000	307	> 3000			Cc1cc2nc(n1)N1CCC(F)(F)C(/C=C\CC3CCN(CC3)c3cc(NS(=O)(=O)CCO)c4c(c3C(=O)N2)OCC4=O)C1 (stereo not drawn) [Example 14B, N-(1^4,1^4-difluoro-2^6-methyl-5^3,4-dioxo-5^2,5-dihydro-3-aza-2(2,4)-pyrimidin-1(1,3),6(1,4)-dipiperidin-5(7,6)-benzofurancyclononane-8-en-5^4-yl)-2-hydroxyethane-1-sulfonamide]
	220		22	22	Cc1cc2nc(n1)N1CCC(F)(F)C(/C=C\CC3CCN(CC3)c3cc(NS(=O)(=O)CCO)c4ccccc4c3C(=O)N2)C1 (single isomer, unassigned) [Example 1B, (cis)-N-(1^4,1^4-difluoro-2^6-methyl-4-oxo-3-aza-2(2,4)-pyrimidin-1(1,3),6(1,4)-dipiperidin-5(1,2)-naphthacyclonon-8-en-5^4-yl)-2-hydroxyethane-1-sulfonamide]

The remaining lines, values behind:

Compound	IC50 (OVCAR3 cells; Homo sapiens, OVCAR-3, 72 h) [nM]	IC50 [1] [nM]	IC50 (HT29 cells; Homo sapiens, HT-29, 72 h) [nM]	IC50 (OVCAR3 cells) [nM]	IC50 (HT29 cells; read-out: HT-29 IC50) [nM]
Cc1cc2nc(n1)N1CCC(F)(F)C(/C=C\CC3CCN(CC3)c3cc(NS(=O)(=O)C(C)CO)c4c(c3C(=O)N2)CCC4=O)C1 (stereo not drawn) [Example 11, (Z)-N-(1^4,1^4-difluoro-2^6-methyl-5^1,4-dioxo-5^2,5^3-dihydro-5^1hydro-3-aza-2(2,4)-pyrimidin-1(1,3),6(1,4)-dipiperidin-5(4, 5)-indenocyclonofin-8-en-5^7-yl)-1-hydroxypropane-2-sulfonamide]	25	76	33		
Cc1cc2nc(n1)N1CCC(F)(F)C(/C=C/CC3CCN(CC3)c3cc(NS(=O)(=O)CCO)c4c(c3C(=O)N2)CCC4(F)F)C1 (stereo not drawn) [Example 15, 2-Hydroxy-N-(1^4,1^4,5^1,5^1-tetrafluoro-2^1-methyl4-dioxo-5^2,5^1-dihydro-5^1H-3-aza-2(2,4)-pyrimidin-1(1,3),6(1,4)-dipiperidin-5(4,5)-benzofurancyclononane-8-en-5^7-yl)-ethane-1-sulfonamide]	24	358	46		
2-Hydroxy-N-(1^4,1^4,5^1,5^1-tetrafluoro-2^6-methyl-4-dioxo-5^2,5^3-dihydro-5^1H-3-aza-2(2,4)-pyrimidin-1(1,3),6(1,4)-dipipe ridin-5(4,5)-benzofurancyclononane-8-en-5^7-yl)-methanesulfonamide [Example 21]		450		78	85
Cc1cc2nc(n1)N1CCC(F)(F)C(CCc3ccc(cc3)-c3cc(NS(=O)(=O)CCO)ccc3C(=O)N2)C1 (stereo not drawn) [Example 45, N-(2^4,2^4-difluoro-1^6-methyl-7-oxo-8-aza-1(2,4)-pyrimidin-2(1,3)-piperidin-5(1,4),6(1,2)-dibenzylcycloophene-6^5-yl)-2-hydroxyethane-1-sulfonamide]	77	114	100		
Cc1cc2nc(n1)N1CCC(F)(F)[C@@H](CCCC3CCN(CC3)c3cc(NS(=O)(=O)CCO)c4c(c3C(=O)N2)CCC4=O)C1 [Example 6, N-((1^3S)-1^4,1^4-difluoro-2^6-methyl-5^1,4-dioxo-5^2,5^3-dihydro-5^1H-3-aza-2(2,4)-pyrimidin-1(1,3),6(1,4)-dipiperidin-5(4,5) -indenoheterocyclononane-5^7-yl)-2-hydroxyethane-1-sulfonamide]	41	73	41		
CCS(=O)(=O)Nc1cc2c(c3c1C(=O)CC3)C(=O)Nc1cc(C)nc(n1)N1CCC(F)(F)C(C=CCC3CCN2CC3)C1 (stereo not drawn) [Example 18, N-(1^4,1^4-difluoro-2^6-methyl-5^1,4-dioxo-5^2,5^3-dihydro-5^1H-3-aza-2(2,4)-pyrimidin-1(1,3),6(1,4)-dipiperidin-5(4,5)-indenoheterocyclonon-8-en-5^7-yl)-ethanesulfonamide]		67		38	41
